This test concerns P. aeruginosa PA01. Kind of test: Overnight culture growth assay. The class given is cell-based.

Values after ≈ are worked out from the molar mass of the structure shown. Where a SMILES comes first, the peptide text is derived from it. Bridges are numbered along the chain shown (N, C = ends). [ ]: non-standard residue; d: D form. The star is where a group is joined. X1 = CC[C@H](C)CCCCC(=O)*; Dab = NCC[C@H](N)C(=O)O

D[KLAKLAK]2 [dKK]: under “peptide concentration range 0 – 5 µM, Figure S1”, the “inhibitory activity against P. aeruginosa in screening range” value is reported as “no activity”.

With `CC[C@H](C)CCCCC(=O)N[C@@H](CCN)C(=O)N[C@H](C(=O)N[C@@H](CCN)C(=O)N[C@H]1CCNC(=O)[C@H]([C@@H](C)O)NC(=O)[C@H](CCN)NC(=O)[C@H](CCN)NC(=O)[C@H](CC(C)C)NC(=O)[C@@H](CC(C)C)NC(=O)[C@H](CCN)NC1=O)[C@@H](C)O` [colistin] (X1-[Dab]T[Dab][Dab][Dab][dL]L[Dab][Dab]T; lactam 4-C (inferred); N-terminus assumed), the minimum inhibitory concentration (MIC) (P. aeruginosa in LB, 2×10^6 CFU/ml, turbidity at 600 nm) is on record as 0.25 µg/mL (≈ 0.214 µM).

Usually MIC stands for the lowest concentration found to suppress growth. Higher therefore signals weaker potency.

The values are drawn from article PMC5765747 (Advanced materials (Deerfield Beach, Fla.), 2017).
